# Source: patent US8524702B2, “Substituted benzoazepines as toll-like receptor modulators” (VentiRx Pharmaceuticals, Inc., priority 2009, dated 2013)
# Biological target: T1, TLR8 (Homo sapiens, UniProt Q9NR97)
# T1 sequence (Q9NR97 27-1041): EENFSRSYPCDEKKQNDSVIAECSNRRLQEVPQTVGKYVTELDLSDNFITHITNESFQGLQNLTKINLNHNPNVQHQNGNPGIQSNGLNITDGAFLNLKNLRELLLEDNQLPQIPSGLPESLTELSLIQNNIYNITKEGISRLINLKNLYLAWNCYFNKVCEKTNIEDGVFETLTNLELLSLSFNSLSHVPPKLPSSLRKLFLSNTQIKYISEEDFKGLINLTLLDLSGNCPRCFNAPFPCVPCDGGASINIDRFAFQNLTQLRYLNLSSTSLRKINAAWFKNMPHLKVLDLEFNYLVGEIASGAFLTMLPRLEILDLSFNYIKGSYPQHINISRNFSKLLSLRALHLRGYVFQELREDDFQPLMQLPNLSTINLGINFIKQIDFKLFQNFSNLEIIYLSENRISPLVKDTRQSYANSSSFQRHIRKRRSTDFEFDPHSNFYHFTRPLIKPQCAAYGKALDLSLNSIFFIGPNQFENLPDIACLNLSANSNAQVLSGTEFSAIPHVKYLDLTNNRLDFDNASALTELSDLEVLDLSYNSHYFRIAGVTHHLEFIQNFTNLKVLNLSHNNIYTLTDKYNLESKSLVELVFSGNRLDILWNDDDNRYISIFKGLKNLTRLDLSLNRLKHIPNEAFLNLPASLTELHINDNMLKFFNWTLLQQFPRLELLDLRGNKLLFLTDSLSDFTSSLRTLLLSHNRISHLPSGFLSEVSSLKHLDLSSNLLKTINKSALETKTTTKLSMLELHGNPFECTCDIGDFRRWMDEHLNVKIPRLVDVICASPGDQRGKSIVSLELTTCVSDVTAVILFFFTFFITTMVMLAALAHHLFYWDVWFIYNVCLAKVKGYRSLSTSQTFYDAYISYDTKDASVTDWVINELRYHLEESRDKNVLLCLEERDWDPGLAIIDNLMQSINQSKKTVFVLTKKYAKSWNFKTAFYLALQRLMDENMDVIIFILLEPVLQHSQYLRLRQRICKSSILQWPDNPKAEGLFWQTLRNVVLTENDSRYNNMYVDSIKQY
# Test: PBMC assay for TLR8 (TNFα in supernatants by ELISA)
# Assay type: cell-based
# Design: Peripheral blood mononuclear cells (PBMCs) from human blood were isolated; endogenous in cells; host or cells: human PBMCs
# Conditions: human PBMCs incubated with compound overnight, MC50 = concentration at which 50% of the maximum induction is seen
# Method: Peripheral blood mononuclear cells (PBMCs) from human blood were isolated using BD Vacutainer Cell Preparation Tubes with sodium citrate. Cells were incubated with compound overnight. TLR8 activity was assayed by measuring the amount of TNFα in supernatants by ELISA. TLR7 activity was assayed by measuring the amount of IFNα in supernatants by ELISA (R&D Systems). […] The results of this assay are shown below in Tables 2 and 3.
# MC50 numbers are represented as factors of ten, for example, + indicates an MC50 value of ×10^4, or a value in the tens of thousands of nanomolar (nM range); ++ indicates an MC50 value of ×10^3, or a value in the thousands; +++ indicates an MC50 value of ×10^2, or a value in the hundreds; and ++++ indicates an MC50 value of ×10^1 or 10°, or a value in the tens or ones.
row,Compound,EC50 [nM]
1,"CCCN(CCC)C(=O)C1=Cc2ccc(-c3cccc(C(=O)OCC)c3)cc2N=C(N)C1 [Compound 187, Ethyl 3-((1E,4E)-2-amino-4-(dipropylcarbamoyl)-3H-benzo[b]azepin-8-yl)benzoate]",100 to 1000
2,"CCCN(CCC)C(=O)C1=Cc2ccc(-c3ccc(C(=O)O)cc3)cc2N=C(N)C1 [Compound 188, 4-((1E,4E)-2-amino-4-(dipropylcarbamoyl)-3H-benzo[b]azepin-8-yl)benzoic acid]",1000 to 10000
3,"CCCN(CCC)C(=O)C1=Cc2ccc(-c3ccc(C(=O)N4C[C@H](O)[C@@H](O)C4)cc3)cc2N=C(N)C1 [Compound 129, (1E,4E)-2-amino-8-(4-((3S,4S)-3,4-dihydroxypyrrolidine-1-carbonyl)phenyl)-N,N-dipropyl-3H-benzo[b]azepine-4-carboxamide]",100 to 1000
4,"NC1=Nc2cc(-c3ccc(C(=O)N4CCCC4)cc3)ccc2C=C(C(=O)N2CCCCC2)C1 [Compound 122, (4-((1E,4E)-2-amino-4-(piperidine-1-carbonyl)-3H-benzo[b]azepin-8-yl)phenyl)(pyrrolidin-1-yl)methanone]",1000 to 10000
5,"CCCN(CCCO)C(=O)C1=Cc2ccc(-c3ccc(C(=O)O)cc3)cc2N=C(N)C1 [Compound 209, 4-((1E,4E)-2-Amino-4-((3-hydroxypropyl)(propyl)carbamoyl)-3H-benzo[b]azepin-8-yl)benzoic acid]",10000 to 100000
6,"CCCNC(=O)C1=Cc2ccc(-c3ccc(C(=O)N4CCCC4)cc3)cc2N=C(N)C1 [Compound 101, (1E,4E)-2-amino-N-propyl-8-(4-(pyrrolidine-1-carbonyl)phenyl)-3H-benzo[b]azepine-4-carboxamide]",100 to 1000
7,"CCOC(=O)C1=Cc2ccc(-c3ccccn3)cc2N=C(N)C1 [Compound 141, (1E,4E)-ethyl 2-amino-8-(pyridin-2-yl)-3H-benzo[b]azepine-4-carboxylate]",100 to 1000
8,"CCCN(CC(O)CO)C(=O)C1=Cc2ccc(-c3ccc(C(=O)N4CCCC4)cc3)cc2N=C(N)C1 (centres unmarked) [Compound 110, (1E,4E)-2-amino-N-(2,3-dihydroxypropyl)-N-propyl-8-(4-(pyrrolidine-1-carbonyl)phenyl)-3H-benzo[b]azepine-4-carboxamide]",1000 to 10000
9,"CCCN(CCCF)C(=O)C1=Cc2ccc(-c3ccc(C(=O)N4CCCC4)cc3)cc2N=C(N)C1 [Compound 202, (1E,4E)-2-Amino-N-(3-fluoropropyl)-N-propyl-8-(4-(pyrrolidine-1-carbonyl)phenyl)-3H-benzo[b]azepine-4-carboxamide]",100 to 1000
10,"CCCN(C(=O)C1=Cc2ccc(-c3ccc(C(=O)N4CCCC4)cc3)cc2N=C(N)C1)C(C)CC (centres unmarked) [Compound 102, (1E,4E)-2-amino-N-sec-butyl-N-propyl-8-(4-(pyrrolidine-1-carbonyl)phenyl)-3H-benzo[b]azepine-4-carboxamide]",100 to 1000
11,"CCCN(CCCF)C(=O)C1=Cc2ccc(-c3ccc(C(=O)OCC)cc3)cc2N=C(N)C1 [Compound 208, Ethyl 4-((1E,4E)-2-amino-4-((3-fluoropropyl)(propyl)carbamoyl)-3H-benzo[b]azepin-8-yl)benzoate]",1000 to 10000
12,"COCCN(CCOC)C(=O)C1=Cc2ccc(-c3ccc(C(=O)N4CCCC4)cc3)cc2N=C(N)C1 [Compound 120, (1E,4E)-2-amino-N,N-bis(2-methoxyethyl)-8-(4-(pyrrolidine-1-carbonyl)phenyl)-3H-benzo[b]azepine-4-carboxamide]",1000 to 10000
13,"CCOC(=O)C1=Cc2ccc(-c3ccc(C#N)cc3)cc2N=C(N)C1 [Compound 146, (1E,4E)-ethyl 2-amino-8-(4-cyanophenyl)-3H-benzo[b]azepine-4-carboxylate]",100 to 1000
14,"CCCN(CCC)C(=O)C1=Cc2ccc(-c3ccc(C(=O)N4C[C@@H](O)[C@H](O)C4)cc3)cc2N=C(N)C1 [Compound 130, (1E,4E)-2-amino-8-(4-((3R,4R)-3,4-dihydroxypyrrolidine-1-carbonyl)phenyl)-N,N-dipropyl-3H-benzo[b]azepine-4-carboxamide]",100 to 1000
